Tests used:
PBC = PBC patients; cited from earlier work
[1] = test system: nonalcoholic steatohepatitis patients; conditions: cited from earlier work
[2] = test system: STAM Model of Non-alcoholic Steatohepatitis; experiment: In vivo efficacy study in the STAM model of non-alcoholic steatohepatitis; set-up: species or system C57BL/6 mice; conditions: for NAFLD Activity Score (NAS) compared with the STAM-Vehicle group: FIG. 1.1
Description: Example: In Vivo Efficacy Study of cenicriviroc in combination with Compound A (“NVP-CH-4”) and Compound B (“NVP-CH-5”) in the STAM Model of Non-alcoholic Steatohepatitis (Treatment period: 6 to 9 wks or 9 to12 wks)
The study involves 14-day-pregnant C57BL/6 mice. NASH was established by a single subcutaneous injection of […] streptozotocin (Sigma, USA) after birth and feeding with a high fat diet (HFD, 57% kcal fat, CLEA Japan, Japan) ad libitum after 4 weeks of age (day 28±2). Randomization of NASH mice into six groups of 12 mice at 6 weeks of age (day 42±2) and six groups of 12 mice at 9 weeks of age (day 63±2), the day before the start of treatment, respectively. NASH animals were dosed from age 6-9 weeks (Study 1), or from age 9-12 weeks (Study 2) with either: vehicle, cenicriviroc, Compound A (“NVP-CH-4”), Compound B (“NVP-CH-5”), cenicriviroc+Compound A or cenicriviroc+Compound B. A non-disease vehicle-control group of 12 mice was included in both Study 1 and Study 2. These animals were fed with a normal diet (CE-2; CLEA Japan) ad libitum.
PK samples were collected and stored at −60° C. Animals were dosed according to the dosing schedule below. Each animal was sacrificed 5 hours after last morning dose on the last day of study treatment (the evening dose of cenicriviroc or vehicle […] that day due to sacrifice).
Dosing: • Cenicriviroc was prepared in 0.5% (w/v) methylcellulose with 1% Tween® 80 in sterile water for injection (USP). • Compound A and Compound B were prepared in 0.5% (w/v) methylcellulose (400 cPs) aqueous solution containing 0.5% (v/v) polysorbate 80, NF, in reverse osmosis water. • In general, cenicriviroc monotherapy was administered twice daily, 12 hours apart (AM and PM). For Compound A or Compound B monotherapy groups, drug was administered once daily in the morning with vehicle alone in the evening (12 hours after the morning dose).
End of Treatment Measurements: Mice were sacrificed at 9 weeks of age (study 1) or at 12 weeks of age (study 2).
The following biochemical assays were performed: Non-fasting blood glucose in whole blood by Life Check (Eidia, Japan); serum ALT by FUJI DRI-CHEM (Fujifilm, Japan); serum triglyceride; serum MCP-1, RANTES (CCLS) and MIP-1α/MIP-1 quantification by a commercial ELISA kit; liver triglyceride by Triglyceride E-test kit (Wako, Japan); liver hydroxyproline quantification by hydrolysis method; histological analyses for liver section; HE staining and estimation of NAFLD Activity score; Sirius-red staining and estimation of fibrosis area (with and without perivascular space subtracted); oil red staining and estimation of fat deposition area; F4/80 immunohistochemistry staining and estimation of inflammation area; alpha-SMA immunohistochemistry staining and estimation of α-SMA positive area Gene expression assays using total RNA from the liver.
Statistical tests were performed using one-way ANOVA followed by Dunnett's test and the Mann-Whitney test, as appropriate, for the multiple group comparisons. P values <0.05 are considered statistically significant.

[3] = test system: NASH in adults with liver fibrosis; conditions: cited from earlier work
[4] = Study 1, treatment week 6-9, CVC 50 mg/kg AM and PM, Compound A 0.1 mg/kg, Compound B 10 mg/kg
[5] = Study 2, treatment week 9-12, same doses
[6] = NASH adults with liver fibrosis, one year

C[C@H](CCC(=O)O)[C@H]1CC[C@H]2[C@@H]3[C@@H](O)C[C@@H]4C[C@H](O)CC[C@]4(C)[C@H]3CC[C@]12C [UDCA, Ursodeoxycholic acid]
population that does not respond (PBC): 30-40%

CC[C@H]1[C@@H](O)[C@@H]2[C@H](CC[C@]3(C)[C@@H]([C@H](C)CCC(=O)O)CC[C@@H]23)[C@@]2(C)CC[C@@H](O)C[C@@H]12 [obeticholic acid, Obeticholic acid]
safety concerns of long term administration [1]: can be associated with pruritus, as well as with increased LDL cholesterol

O=C(O)c1cc(F)c2nc(N3C4CCC3CC(OCc3c(-c5ccccc5OC(F)(F)F)noc3C3CC3)C4)sc2c1 (centres unmarked) [Compound A, 2-[3-({5-cyclopropyl-3-[2-(trifluoromethoxy)phenyl]-1,2-oxazol-4-yl}methoxy)-8-azabicyclo[3.2.1]octan-8-yl]-4-fluoro-1,3-benzothiazole-6-carboxylic acid]
NAFLD Activity Score (NAS) compared with the STAM-Vehicle group [2, 4]: significant reductions in NAS | NAFLD Activity Score (NAS) compared with the STAM-Vehicle group [2, 5]: significant reductions in NAS

Cn1nc(C(=O)N(Cc2ccccc2)Cc2ccc(C(=O)O)cc2)c2c1-c1cc(Cl)ccc1OC2 [Compound B, 4-((N-benzyl-8-chloro-1-methyl-1,4-dihydrochromeno[4,3-c]pyrazole-3 carboxamido)methyl)benzoic acid]
NAFLD Activity Score (NAS) compared with the STAM-Vehicle group [2, 4]: significant reductions in NAS | inflammatory cell infiltration score compared with the STAM-Vehicle group ([2]; Study 1, week 6-9, FIG. 1.2): significant reductions in the inflammatory cell infiltration score | NAFLD Activity Score (NAS) compared with the STAM-Vehicle group [2, 5]: significant reductions in NAS

CCCCOCCOc1ccc(-c2ccc3c(c2)/C=C(/C(=O)Nc2ccc([S@@+]([O-])Cc4cncn4CCC)cc2)CCCN3CC(C)C)cc1 [CVC, (S,E)-8-(4-(2-butoxyethoxy)phenyI)-1-(2-methylpropyl)-N-(4-(((1-propyl-1H-imidazol-5-yl)methyl)sulfinyl)phenyl)-1,2,3,4-tetrahydrobenzo[b]azocine-5-carboxamide]
fibrosis [3, 6]: reduction of fibrosis | improvement of NAS [3, 6]: no significant impact | adverse effects ([3]; patients): can induce fatigue or diarrhea in a small part of the patients | NAFLD Activity Score (NAS) compared with the STAM-Vehicle group [2, 4]: significant reductions in NAS

— patent US20210290610A1, “COMBINATION OF FXR AGONISTS” (priority 2016, published 2021)
